Laboratory results reported in patent US8753820B2, “Protein biomarkers for soft tissue disease diagnosis and as therapeutic targets for oral care intervention” (Colgate-Palmolive Company, priority 2009, dated 2014).

Legend:
[1] = tested on: MMP-13 expression in UMR 106-01 cells; assay: MMP-13 expression by real time quantitative RT-PCR in PTH stimulated UMR 106-01 cells; type: cell-based, Rat; settings: 4 hours; for MMP-13 expression in PTH stimulated UMR cells: PTH 10^-8 M
Method: Parathyroid hormone (rat PTH 1-34) was purchased from Sigma. UMR 106-01 cells were cultured in Eagle's minimal essential medium (EMEM) supplemented with 25 mM Hepes pH 7.4, 1% nonessential amino acids, 100 units/ml penicillin, 100 μg/ml streptomycin. 5% fetal bovine serum. Real Time Quantitative RT-PCR was conducted according to the following method: UMR 106-01 cells were seeded in 12-well plates and cultured for 2-3 days in cell culture media. When cells were confluent, cell culture media was exchanged with 1% fetal bovine serum for overnight for cell starvation. Cells were pre-incubated with dentifrice for 15 min and then incubated with PTH (10^−8 M) for 4 hours.
Total RNA was isolated from UMR 106-01 cells stimulated with or without PTH with TRIzol reagent. Total RNA (0.1 μg) was reverse-transcribed to cDNA using the Invitrogen SUPERSCRIPT kit according to the manufacturer's instructions. All cDNAs were amplified by adding 2.5 μl of cDNA to the PCR mixture (22.5 μl) containing each primer (0.2 μM) and 12.5 μl of the Platinum SYBR Green qPCR SuperMix UDG (Invitrogen). The reactions were preincubated at 50° C. for 2 minutes to decontaminate dU-containing DNA by UDG, then at 95° C. for 2 minutes to inactivate UDG and activate Taq. The PCR program continued 49 cycles of denaturation at 95° C. for 15 seconds, annealing and elongation of the primers at 60° C. for 30 seconds. Relative quantification of gene expression was determined by using the 2-delta delta CT method where fold changes in gene expression are relative to control samples. All samples were normalized to β-actin.
All results were expressed as means±standard error (S.E.) of triplicate measurements with all experiments being repeated at least three times. Statistical analyses were carried out using the Student's t test.

[2] = tested on: MMP-9 production of U937 cells; assay: MMP-9 ELISA of conditioned media from TNFα-stimulated U937 monocyte cells; type: cell-based, Human; settings: for MMP-9 production, Average: U937 cells, 24 hours, ELISA of conditioned media
Method: U937 cells and RPMI 1640 culture medium were obtained from ATCC. Human MMP-9 ELISA Kit (QUANTIKINE) was obtained from R&D Systems. Fetal Bovine Serum (FBS) was obtained from VWR, and the penicillin-streptomycin solution and Tumor Necrosis Factor α (TNFα) were obtained from Sigma.
Human leukemia U937 monocyte lymphoma cells were cultured in RPMI 1640 medium supplemented with 10% FBS and 1% Penicillin-Streptomycin solution. Cells were incubated at 37° C. in a humidified atmosphere containing 5% CO2 and 95% air. Before treatment, cells were transferred into RPMI containing 1% FBS for overnight. Cells were plated on a 48 well plate. Cell culture medium included either TNFα (250 ng/mL), Triclosan (1 ppm), or both agents together or no agent (control). Cells were incubated after treatment for 24 hours. Conditioned media were collected and store at −80° C. until analysis. Samples of conditioned media were subjected to enzyme-linked immunosorbent assays (ELISA) for MMP-9, according to commercial ELISA protocol (FIG. 1).

[3] = PEG 600 present in a weight ratio of 25 triclosan:1 PEG 600, versus absence of polyethylene glycol; cited from earlier work

For “PTH: Parathyroid hormone (rat PTH 1-34) purchased from Sigma, used to stimulate MMP-13 expression (AVSEIQLMHNLGKHLASVERMQWLRKKLQDVHNF; Parathyroid hormone; UniProt P04089 32-65, looked up, fragment)”, the “MMP-13 expression in UMR cells” value ([1]; stimulated with PTH 10^-8 M) was “increase”.
With TNFα the “MMP-9 production, Average” value ([2]; TNFα 250 ng/mL alone) was 0.275 ng/mL and the “MMP-9 level in U937 cells” value ([2]; stimulated with TNFα) was “increase”.
For `Oc1cc(Cl)ccc1Oc1ccc(Cl)cc1Cl` [Triclosan, 2,4,4′-trichloro-2′-hydroxydiphenyl ether], the “MMP-9 level in TNFα stimulated U937 cells” value ([2]; Triclosan at 1 ppm) was “significantly reduced”, the “MMP-9 production, Average” value ([2]; TNFα 250 ng/mL + Triclosan 1 ppm) was 0.155 ng/mL and the “MMP-13 expression in PTH stimulated UMR cells” value ([1]; 1 ppm) was “significantly reduced”. For the same compound, the “MMP-13 expression in PTH stimulated UMR cells” value ([1]; 4 ppm) was “significantly reduced”, the “MMP-13 expression in PTH stimulated UMR cells” value ([1]; 10 ppm) was “significantly reduced” and the “factor by which antibacterial activity of triclosan is reduced” value [3] was 10-20.
